Assay results taken from patent publication US11913952B2, “Methods for detecting peptide/MHC/TCR binding” (Prognosys Biosciences, Inc., priority 2013, dated 2024).
Read-outs that look alike come from different tables or passages of the source.

Tests used:
HLA-DR3 [1] = tested on: HLA-DR3
HLA-DRB1*01:01 = HLA-DRB1*01:01 (Homo sapiens, UniProt P01903+P01911, A100R/D57E/F55L/F60I/F76Y/I96L/L162R/M171V/P40L/Q125E/R42F/V115G/Y59C); assay: Peptide-MHC binding assay: conjugate incubated with recombinant MHC, captured with anti-HLA-DR antibody (L243) beads, qPCR
HLA-DR1 [2] = biological target: T1, HLA-DR1 (Homo sapiens, UniProt P01903+P01911, A100R/D57E/F55L/F60I/F76Y/I96L/L162R/M171V/P40L/Q125E/R42F/V115G/Y59C); details: cited from earlier work; for known binding of peptide to HLA-DR1: Sidney et al., 2002
HLA-DR3 [3] = details: cited from earlier work; for known binding of peptide to HLA-DR3: Sidney et al., 2002
HLA-DR1 [4] = biological target: T1, HLA-DR1; format: binding; parameters: biotin (biotinylated)
HLA-DR2 = HLA-DR2 (Homo sapiens, UniProt P01903+P01911); details: cited from earlier work

| Substance | binding of peptide-cDNA conjugate to MHC molecule (HLA-DR3 [1]) | enrichment in the DR1 condition compared to beads only (HLA-DRB1*01:01) | known binding of peptide to HLA-DR1 (HLA-DR1 [2]) | known affinity of peptide for the HLA-DR1 molecule (HLA-DR1 [2]) | known binding of peptide to HLA-DRB1*01:01 (HLA-DR1 [2]) | known binding of peptide to HLA-DR3 (HLA-DR3 [3]) | affinity of peptide for purified DR2 (HLA-DR2) | other results |
| --- | --- | --- | --- | --- | --- | --- | --- | --- |
| YPKYVKQNTLKLAT | not to the other HLA-DR family member | ~1000 fold | bind | high | bind | without cross-binding |  | enrichment of conjugate binding to DR1 over beads (HLA-DRB1*01:01): ~100 fold; binding of peptide-cDNA conjugate to MHC molecule (HLA-DR1 [4]): bound to the expected MHC molecule; profile of binding to HLA-DR1 (HLA-DR1 [4]): high |
| MBP(85-99): peptide of human myelin basic protein, residues 85-99 (PGSRPHLIRLFSRDA; UniProt P02686 85-99, looked up, fragment) |  |  |  |  |  |  | high affinity |  |
| MBP(148-162): peptide of human myelin basic protein, residues 148-162 (YLATASTMDHARHGF; UniProt P02686 148-162, looked up, fragment) |  |  |  |  |  |  | lower but significant |  |
| YPKAVKQNTLKLAT [YP (Y4A)] |  |  |  | low |  |  |  | profile of binding to HLA-DR1 (HLA-DR1 [4]; conjugates incubated and detected as a mixture (3-plex), qPCR): low; profile of binding to HLA-DR1 (HLA-DR1 [4]; conjugates present individually (1-plex), qPCR): low |
| YKTIAFDEEARR | bound to the expected MHC molecule | no such enrichment | without cross-binding |  | not bind | bind |  | enrichment of signal in the DR1 condition compared to beads only (DR1): ~1000 fold; known binding of peptide to HLA-DRB1*03:01 (HLA-DR3 [3]): bind; binding of peptide-cDNA conjugate to MHC molecule (HLA-DR1 [4]; biotinylated HLA-DR1, overnight incubation, gel electrophoresis and qPCR readouts): not to the other HLA-DR family member |
